The values that follow come from PubChem BioAssay (NCI).

Among the test systems are XF 498 CNS; CCRF-CEM leukemia; CAKI-1 renal; OVCAR-3 ovarian; LXFL 529 NSCLC; PC-3 prostate; SR leukemia; M19-MEL melanoma; SK-MEL-28 melanoma; UACC-62 melanoma; SN12C renal; NCI-H23 lung; LOX IMVI melanoma; A498 renal; UACC-257 melanoma.
Holding throughout (experiment): NCI tumour cell line growth inhibition, 48 h

SMILES strings stand for the structures.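 Five compound concentrations were applied to cells in 96-well plates for 48 hours; endpoints were derived by simple linear interpolation of the resulting dose-response curve. At the GI50, growth is halved. The concentration for full growth arrest is given as TGI.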 A value given as a limit tells only on which side of the number the result lay.

For `COC(=O)C1c2cc3c(c(O)c2C(O)CC1(C)O)C(=O)c1c(O)cc2c(c1C3=O)OC1OC2(C)C(O)C(N(C)C)C1O` (centres undefined), the TGI with XF 498 CNS was above 100000 nM; in the assay with CCRF-CEM leukemia, above 100000 nM; in the assay on CAKI-1 renal it was 14200 nM; with OVCAR-3 ovarian, above 100000 nM; with LXFL 529 NSCLC, above 100000 nM; in the assay on PC-3 prostate, 2430 nM. For the same molecule, the TGI in the assay on SR leukemia and in the assay with M19-MEL melanoma was above 100000 nM throughout.

Regarding `CC1OC(=O)C(C(C)C)NC(=O)C(C(C)C)OC(=O)C(C(C)C)NC(=O)C(C)OC(=O)C(C(C)C)NC(=O)C(C(C)C)OC(=O)C(C(C)C)NC(=O)C(C)OC(=O)C(C(C)C)NC(=O)C(C(C)C)OC(=O)C(C(C)C)NC1=O` (centres undefined), the GI50 is below 0.1 nM in the assay on SK-MEL-28 melanoma; below 0.1 nM in the assay on UACC-62 melanoma; 0.19 nM with SN12C renal; below 0.1 nM in the assay with NCI-H23 lung; below 0.1 nM in the assay with LOX IMVI melanoma; below 0.1 nM in the assay on OVCAR-3 ovarian. Also, the TGI turned out to be 5630 nM in the assay with SK-MEL-28 melanoma; 5580 nM with UACC-62 melanoma; 233 nM in the assay with SN12C renal; 50.3 nM in the assay on NCI-H23 lung; 38.3 nM with A498 renal; 4200 nM in the assay on CCRF-CEM leukemia. The TGI was 3.45 nM in the assay with CAKI-1 renal, 14.8 nM in the assay with OVCAR-3 ovarian, 6280 nM in the assay on M19-MEL melanoma and 145 nM in the assay on UACC-257 melanoma.
